# Data reported in US12473250B2, “Molecular design of new antibiotics and antibiotic adjuvants against MCR strains” (priority 2019, dated 2025).
# How the values were obtained:
# [1] = test system: colistin resistant MCR (+) E. Coli strains; test: MIC, broth microdilution, compound alone; type: cell-based; settings: compound alone
# Procedure, shortened: (§1)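 Modified CLSI broth microdilution; inoculum from 18–20 h TSA colonies adjusted to 0.5 McFarland, ~5×10^5 CFU/mL per well. Plates incubated 24 h at 35 °C; turbidity may be read at OD600. MIC defined as concentration giving 99% inhibition.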
# [2] = test system: colistin resistant MCR (−) E. Cloacae strain 7023456439; test: MIC, broth microdilution, compound alone; type: cell-based; settings: strain 7023456439 E. Cloacae
# Procedure, shortened: as §1
# [3] = test system: colistin resistant MCR (−) E. Coli strains; test: MIC, broth microdilution, compound alone; type: cell-based
# Procedure, shortened: as §1
# [4] = test system: colistin resistant MCR (+) E. Coli strains; test: Synergy study: colistin MIC in the presence of compound; type: cell-based; settings: against mcr-1 bacteria; in words
# Procedure, shortened: (§2)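 CLSI broth microdilution with colistin and LC compound added in equal amounts, 2-fold serial dilution, alone or combined at fixed synergy concentration. MIC taken as lowest concentration with no visible growth after 24 hours of incubation.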
# [5] = test system: colistin resistant MCR (−) E. Cloacae strain 7023456439; test: as above; type: cell-based; settings: strain 7023456439 E. Cloacae, compound at 10 μg (Table 2a: 10 ug/ml)
# Procedure, shortened: as §2
# [6] = test system: colistin resistant MCR (−) E. Coli strains; test: as above; type: cell-based; settings: compound at 10 μg (Table 2a: 10 ug/ml)
# Procedure, shortened: as §2
# [7] = test system: 6083655967 [MCR 1+; E.Coli]; test: Synergistic study between LC100 or LC101 with B2088; type: cell-based; settings: for Combination MIC: strain 6083655967, value of each component
# Experimental: The MICs of the individual drugs and LC compound in combinations were determined using the broth microdilution technique as recommended by the CLSI whereby the two anti-microbial agents were added in an equal amount. (e.g.: 50 μL of Colistin: 50 μL of LC compounds). Diluted media containing compounds and antibiotics will be serially diluted 2-fold, and LC compounds and antibiotics alone or in combination will be assayed at fixed synergy concentration. In all cases, the lowest concentration at which no visible growth occurred was be recorded to be the MIC value of individual and combined antibacterial agents. The results were obtained after 24 hours of incubation.
# Using the combination of LC100 and colistin, the activity of a broad range of strains was further tested (Table 7).
# [8] = test system: Gram positive bacteria (SA and MRSA strains); test: Antimicrobial effect on Gram positive bacteria (Table 8); type: cell-based; design: key to antimicrobial effect on Gram positive bacteria: MIC (concentration giving 99% inhibition), concentrations in μg; settings: compound alone
# Experimental: MIC experiments of the antimicrobial agents were determined by a modified broth microdilution method in accordance with the Clinical and Laboratory Standards Institute (CLSI) guidelines using 96 well culture plates. In brief, serial dilutions of all plates were prepared at different concentrations (μg). The inoculum suspension was prepared by adding isolated colonies from a 18-20 hours on TSA plate into phosphate buffer (0.31 mM, pH 7.2) or in water for injection (BBraun) and adjusting the suspension to a turbidity equivalent to 0.5 McFarland Standard. Each well contained a final bacterial concentration of approximately 5×10^5 colony forming units (CFU)/mL. The plate was covered and incubated at 35° C. for 24 hours. […] For the microdilution plates, turbidity in wells can be measured at OD600 using TECAN infinite M200Pro. MIC was determined as […] concentration that gives a 99 percent inhibition.
# The antimicrobial activity of the inventive combination was also tested against Gram positive bacteria, including the multi-drug resistant strains, such as MRSA. […] This means the combination of LC100/LC101 with colistin has broad antimicrobial spectrum, being active against both Gram positive and Gram negative bacteria.
# [9] = Calcein leakage from large unilamellar vesicles; settings: vesicles of 100 nm, DOPE/DOPG=3/1
# Text: FIG. 20 refers to a graph showing calcein leakage of LC100 and LC101 using large unilamellar vesicles of 100 nm. The lipid composition of the vesicle is DOPE/DOPG=3/1, mimicking the bacterial inner membrane. […] Further increase of LC100 or LC101 leads to decrease in the florescence because of a fluorescence quenching effect.
compound,measurement,setting,value
COC(=O)C(CCCNC(=N)N)NC(=O)COc1ccc(/C=C/C(=O)c2ccc(OCC(=O)NC(CCCNC(=N)N)C(=O)OC)c(CC=C(C)C)c2O)cc1 (stereo not drawn) [LC101],MIC,"[1]; strain 6075066346, MCR (+)",25 µg/mL
same,MIC,"[1]; strain 6083655967, MCR (+)",25 µg/mL
same,MIC,"[1]; strain 6103645107, MCR (+)",25 µg/mL
same,MIC,"[1]; strain 6123520276, MCR (+)",50 µg/mL
same,MIC,"[1]; strain 7013177695, MCR (+)",25 µg/mL
same,MIC,"[1]; strain 7023436560, MCR (+)",25 µg/mL
same,MIC,"[1]; strain 7023444207, MCR (+)",25 µg/mL
same,MIC,[2],>50 µg/mL
same,MIC,"[3]; strain 6083672926, MCR (−)",25 µg/mL
same,MIC,"[3]; strain 7023446108, MCR (−)",25 µg/mL
same,MIC,"[3]; strain 7033607097, MCR (−)",50 µg/mL
same,synergy with colistin,[4],excellent synergy
same,Colistin MIC in the presence of the compound,[5],>12.5 µg/mL
same,Colistin MIC in the presence of the compound,"[6]; strain 6083672926, MCR(−)",<0.195 µg/mL
same,Colistin MIC in the presence of the compound,"[6]; strain 7023446108, MCR(−)",<0.195 µg/mL
same,Colistin MIC in the presence of the compound,"[6]; strain 7033607097, MCR(−)",<0.195 µg/mL
same,Combination MIC,[7]; combination B2088 (Ac) + LC 101,2 µg/mL
same,Combination MIC,[7]; combination B2088 + LC 101,2 µg/mL
same,level of synergistic effect with B2088,[7]; killing E. coli with the mcr-1 mutation,1 µg/mL
same,activity against Gram positive strains,[8]; in words,good activity
same,antimicrobial effect on Gram positive bacteria,[8]; strain MRSA ATCC 43300,6.25
same,antimicrobial effect on Gram positive bacteria,[8]; strain MRSA ATCC 700699,6.25
same,antimicrobial effect on Gram positive bacteria,[8]; strain MRSA DM 21455,3.125
same,antimicrobial effect on Gram positive bacteria,[8]; strain SA ATCC 6538,3.125
same,antimicrobial effect on Gram positive bacteria,[8]; strain SA ATCC 29213,3.125
same,antimicrobial effect on Gram positive bacteria,[8]; strain SA DM 4400R,3.125
same,calcein leakage / disruption of vesicles,[9],significant florescence was detected
